Literature values in patent US20060233843A1, “Treatment of psychosis with a muscarinic m1 receptor ectopic activator” (priority 2003, published 2006).

Molecular target: T1, M1 receptor, residue 381 mutated from tyrosine to alanine (Homo sapiens, UniProt P11229, Y381A)
T1 sequence (P11229 1-460 Y381A): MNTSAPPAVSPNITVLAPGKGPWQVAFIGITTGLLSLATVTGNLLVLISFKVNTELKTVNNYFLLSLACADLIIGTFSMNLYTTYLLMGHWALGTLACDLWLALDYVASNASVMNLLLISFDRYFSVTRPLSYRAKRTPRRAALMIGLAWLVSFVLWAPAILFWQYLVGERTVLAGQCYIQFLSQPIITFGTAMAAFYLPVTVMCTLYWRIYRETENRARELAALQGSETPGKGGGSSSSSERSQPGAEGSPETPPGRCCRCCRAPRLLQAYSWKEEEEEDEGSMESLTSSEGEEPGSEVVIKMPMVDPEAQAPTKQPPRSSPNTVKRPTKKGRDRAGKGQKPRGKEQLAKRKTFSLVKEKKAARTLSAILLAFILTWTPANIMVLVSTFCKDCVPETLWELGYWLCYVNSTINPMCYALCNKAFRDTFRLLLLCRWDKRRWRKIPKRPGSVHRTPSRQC
Conditions: M1 receptor Y381A mutant versus wild type

| effect of mutation of residue 381 from tyrosine to alanine on pharmacology | increase of ectopic agonist potency by mutation of residue 381 from tyrosine to alanine | Structure (SMILES) |
| --- | --- | --- |
| not affecting | – | CCCCC1CCN(CCCC(=O)c2ccccc2C)CC1 [AC-42] |
| – | 8 fold | Clc1ccc2c(c1)N=C(N1CCNCC1)c1ccccc1N2 [N-desmethylclozapine, Desmethylclozapine] |
